Data on three molecules can be found in patent publication US8329160B2, “Interferon alpha sequential regimen for treating cancers” (HI-Stem, priority 2007, dated 2012).

Series [1] has as its system HSCs. The series can be described thus: Survival of mice under repeated 5FU after polyIC priming (IFN alpha pulse). The format is in vivo. Here is the method: Wild-type C57B1/6 and IFNAR−/− mice were treated as follows: mice were injected with […] mouse polyIC (Invivogen) twice (polyIC is a double stranded RNA mimetic strongly inducing IFNα/b), the lag time between the two injections being 48 h. PolyIC injections are used in this experiment as IFN alpha “pulse”. Mice that were only treated with 5FU without priming injections of polyIC were used as controls.
5-Fluoro-uracil (5FU) was injected (150 mg/kg, Sigma) at different times after the last polyIC injection: 0 h (same time as last polyIC injection); 24 h, 48 h, 72 h, 5 days and 7 days. The proliferation rate of cells at time of 5FU injection was analyzed by BrdU analysis of KLS cells as described in the above examples. Single 5FU injections were repeated every 7 days. The survival of the mice was monitored for a period of 20 days.

In series [2] the test system is dormant HSCs (KLS CD150+CD48-CD34-). Description: BrdU pulse-chase, label-retaining (dormant) long-term HSCs. The format is in vivo, mice. On the procedure:
After a period of permanent BrdU labeling for 10 days, mice were kept without BrdU for 70 days. 14 days before the analysis, the mice were either treated three times with polylC or with PBS. 10 days later (and 70 days after the last BrdU injection) three HSC populations containing an increasing percentage of dormant HSCs were isolated and analysed for the presence of BrdU+label-retaining cells (LRCs), which represent dormant HSCs.
C57B1/6 mice and IFNAR−/− mice were given BrdU (0.8 mg/ml; Sigma) in the drinking water for 10 days. After this BrdU pulse, mice were left for a chase of 10 weeks. Then, mice were twice injected with IFNα at a concentration of 10×10^3 U/mouse each (48 h gap between the 2 injections) or left untreated. BrdU uptake was then analyzed 10 days after the last IFNα injection. After this BrdU pulse-chase experiment in wild-type mice, about 15% of the long-term HSCs (KLS CD150+CD48−CD34−) are still labeled with BrdU (label retaining cells-LRCs). […] This was not the case with long-term HSCs lacking the IFN-receptor (in IFNAR−/− mice) showing that this effect is indeed mediated by Interferon signaling (FIG. 1D).

In series [3] the test system is hematopoietic stem cells (HSCs) (lineage-CD117+Sca1+). The series can be described thus: BrdU uptake (proliferation rate) of KLS hematopoietic stem cells in treated mice. Format: in vivo. On the procedure: Wild-type C57B1/6 mice were treated with IFNα which was obtained as decribed in the literature (Le Bon et al., 2003, Nat. Immunol. 4(10):1009-15). at 0 h and 24 h, respectively with 10×10^3 U/mouse, and were then treated at 36 h with Bromodeoxyuridine (BrdU) at 360 μg/mouse for cell detection. Mice which were only injected with BrdU were used as control. Bone marrow was then taken from the long bones of hindlegs and prepared by standard procedures (Wilson et al., 2004, Genes & Dev 18; 2747-2763). Bone marrow cells were then stained with a cocktail of conjugated antibodies (Bioscience) against mice lineage markers (CD4, CD8, CD11b, Gr1, Ter119, B220), CD117 (c-kit), Sca1 (Ly-6A/E), CD34, CD135, CD48 or CD150). Cells were then fixed. BrdU uptake was analyzed using the BrdU staining kit (BD Biosciences).
Five and six-color flurorescent-activated cell sorting (FACS) analysis (FITC, PE, PE-Cy5, PE-Cy7, APC, APC-Cy7) were performed using a FACS Canto flow cytometer (Becton Dickinson) as described in the literature (Wilson et al., 2004, above). Data were analyzed using FlowJo (Tree Star, Inc.; Ashland, USA software).
Percentages of BrdU positive KLS-HSCs cells (lineage CD117+Sca1+) were determined as a measurement of the proliferation rate of these cells. The same BrdU analyses were performed on subpopulations of HSCs.

Series [4] deals with HSCs. Description: Mixed bone marrow chimeras (wt / IFNAR-/-), BrdU uptake in LSK cells. The format is in vivo, mice. Particulars: IFNα 10×10^3 U/mouse. On the procedure:
The different mice were treated with IFNα (10×103 U/mouse) in comparison with untreated wt mice (C) as described in Example 3. FIG. 2B represents the BrdU uptake in wt (CD45.1) and IFNAR−/− (CD45.2) LSK cells in the mixed bone marrow chimeras in response to treatment with IFNα.
To investigate whether HSCs respond directly to IFNα in vivo, mixed bone marrow “chimeras” comprising various ratios of wild-type (wt) and IFNAR−/− (IFNRKO) bone marrow cells were treated with IFNα (10×10^3 U/mouse) in comparison with untreated wt mice (C) (FIG. 2A).

`O=c1[nH]cc(F)c(=O)[nH]1` [5FU, 5-Fluoro-uracil]: in series [1] (5FU 150 mg/kg every 7 days, 20 days), the “survival of mice under repeated 5FU treatment without polyIC priming” value was “do survive”.

For the molecule IFNα, in series [2] (IFNAR-/- mice (HSCs lacking the IFN-receptor)), the “reduction of LRC+ long-term HSCs (activation of dormant HSCs)” value is “not the case”. For the same molecule, the “number of LRC+ long-term HSCs (BrdU label retaining cells)” value in series [2] (wild-type mice, 2 injections IFNα 10×10^3 U/mouse 48 h apart, analysed 10 days after last injection, untreated about 15% LRC) is “dramatically reduced”. Moreover, the “dose dependence of increase in proliferation” value in series [3] (different doses of IFNα (U/g of mouse)) is “dose-dependent”. For the same molecule, the “proliferation in subpopulations of HSCs (long-term HSCs, short-term HSCs, MPPs)” value in series [3] (wild-type C57B1/6 mice, after IFNα treatment) was “increase in proliferation in all subpopulations of HSCs”. For the same molecule, in series [3] (wild-type C57B1/6 mice, IFNα 10×10^3 U/mouse at 0 h and 24 h, BrdU at 36 h, untreated control 23%), the “proliferation rate of HSCs (percentage of BrdU positive KLS cells)” value was 63%. In series [3] (wild-type mice, after IFNα treatment), the “absolute cell numbers of HSCs” value was “increase in absolute cell numbers”. Besides, in series [4], the “activation of HSCs in mixed wt / IFNAR-/- bone marrow chimeras” value is “direct and an indirect activation”.

Consider polyIC [reference compound], for which, in series [2] (mice treated three times with polyIC vs PBS, 70 days after last BrdU), the “percentage of BrdU+-LRCs in HSC populations” value is on record as “strongly reduced”. The “increase of HSC proliferation rate (BrdU uptake)” value in series [3] (IFNAR-/- mice, polyIC once at 10 μg/g) is on record as “not seen”. Also, the “effect of polyIC priming on survival under 5FU” value in series [1] (IFNAR-/- mice) is recorded as “no effect on the survival”. Besides, the “survival of mice (lethality by elimination of all HSCs)” value in series [1] (wild-type C57B1/6, polyIC twice (48 h apart) prior to 5FU 150 mg/kg repeated every 7 days, 20 days monitoring) was “efficient lethality”.
